According to EP0236307B1, “ANTIHYPERTENSIVE AGENTS, PHARMACEUTICAL COMPOSITIONS CONTAINING THEM AND PROCESSES FOR THE PREPARATION OF THE AGENTS AND COMPOSITIONS” (SCHERING CORPORATION, priority 1985, dated 1987):

System: angiotensin converting enzyme
Test: In-vivo ACE inhibitory activity: inhibition of the pressor response to i.v. angiotensin I in anesthetised rats
Conditions: for ID50 (i.v.): intravenous dose required to inhibit the pressor response to i.v. angiotensin I by 50% in anesthetised rats; for ID50 (oral): oral dose required to inhibit the pressor response to i.v. angiotensin I by 50% in anesthetised rats
Text: As mentioned before the compounds of this invention show valuable antihypertensive activity. It can be concluded from animal tests that these compounds have high angiotensin converting enzyme inhibitory activity (ACE inhibitory activity). The in-vivo ACE inhibitory activity of Compound A: 1- [N-[1(S)-carboxy-3- [4-(4-chloro-3-sulfamoyl benzamido) phenyl] propyl](S)-alanyl]cis,syn-octahydroindole-2-(S)-carboxylic acid Compound B: 1-[N-[1(S)-carboxy-3-[4-(4-chloro-3-N-methyl-sulfamoyl benzamido)phenyl]propyl]-(S)-alanyl]cis, syn-octahydroindole-2(S)-carboxylic acid is as follows: […]

CNS(=O)(=O)c1cc(C(=O)Nc2ccc(CC[C@H](N[C@@H](C)C(=O)N3[C@H](C(=O)O)C[C@@H]4CCCC[C@@H]43)C(=O)O)cc2)ccc1Cl [Compound B, 1-[N-[1(S)-carboxy-3-[4-(4-chloro-3-N-methyl-sulfamoylbenzamido)phenyl]propyl]-(S)-alanyl]cis, syn-octahydroindole-2(S)-carboxylic acid]
ID50 (i.v.): 0.033 mg/kg
ID50 (oral): 3 mg/kg

C[C@H](N[C@@H](CCc1ccc(NC(=O)c2ccc(Cl)c(S(N)(=O)=O)c2)cc1)C(=O)O)C(=O)N1[C@H](C(=O)O)C[C@@H]2CCCC[C@@H]21 [Compound A, 1-[N-[1(S)-carboxy-3-[4-(4-chloro-3-sulfamoylbenzamido)phenyl]propyl](S)-alanyl]cis,syn-octahydroindole-2-(S)-carboxylic acid]
ID50 (i.v.): 0.036 mg/kg
ID50 (oral): 3 mg/kg
